Legend:
[1] = test system: collagen I; assay: Immunofluorescent staining of cultured human fibroblasts for dermal matrix proteins: collagen I; format: cell-based; conditions: immunofluorescent antibodies, compared to untreated controls
[2] = test system: collagen III; assay: Immunofluorescent staining of cultured human fibroblasts for dermal matrix proteins: collagen III; format: cell-based; conditions: immunofluorescent antibodies, compared to untreated controls
[3] = test system: elastin fibers; assay: Immunofluorescence study of elastin fibers; format: cell-based, human; conditions: immunofluorescence studies
[4] = test system: fibronectin; assay: Secretion of fibronectin; format: cell-based; conditions: compared to untreated controls
[5] = test system: laminin; assay: Secretion of laminin; format: cell-based; conditions: compared to untreated controls
[6] = test system: hyaluronic acid; assay: Hyaluronic acid production/secretion in cultured human dermal fibroblasts; format: cell-based; conditions: compared to an untreated control
Protocol: In this study, tetradecyl aminobutyroylvalylamino butyric urea trifluoroacetate (SYN-HYCAN™ from Pentapharm/DSM) was replaced with Alpinia galanga leaf extract (HYALUFIX™ GL from BASF). Therefore, the combination of tripeptide-1 (KOLLAREN® from Unipex/Lucas Meyer), Centella asiatica stem cells (CENTELLA ASIATIC STEMS G™ from Ricerche Biotecnologiche), and Alpinia galanga leaf extract (HYALUFIX™ GL from BASF) was tested on skin at various levels in various dermatologically acceptable vehicles. The following includes data concerning these tests. Further, an in vitro assay was performed on Alpinia galanga leaf extract using cultured human dermal fibroblasts.

Row | Substance | increase in collagen I [1] [%] | increase in collagen III [2] [%] | increase in elastin fibers [3] [%] | increase in secretion of fibronectin [4] [%] | increase in secretion of laminin [5] [%] | increase in production of hyaluronic acid secretion [6] [%]
1 | Tripeptide-1 | 305 | 105 | 15 | 105 | 85 | 118
2 | Tetradecyl aminobutyroylvalylamino butyric urea trifluoroacetate | – | – | – | – | – | 64.2

— patent US12485080B2, “Cosmetic compositions” (Mary Kay Inc., priority 2011, dated 2025)
